The subject of this assay is C. albicans ISS 1. As to the kind of experiment: Experimental subcutaneous infection with Candida albicans in mice. Type of assay: in vivo, Candida albicans in mice (male CD1 outbred). The conditions noted are these: individual samples 1-4; 50 mcg s.c. at 0, 48 and 96 hours (150 total mcg per animal). As to the method:
Male CD1 outbred mice (IFFA Credo) aged 8 weeks were used (4 animals per group).
A pathogenic strain of Candida was used, namely C. albicans ISS 1.
The infected animals were treated with ST 722 dissolved in saline, and Miconazole diluted in saline from a stock solution containing 1% Dimethyl Formamide.
From an overnight broth culture of C. albicans in Sabouraud broth, a fungal suspension was prepared in sterile saline containing 5.0×10^5 cells/mi. An inoculum of 0.5 ml of this suspension was injected subcutaneously into the abdominal wall of each animal.
The compounds were then administered by subcutaneous injection in the same area of the fungal challenge at the dose of 50 mcg (in 0.2 ml of saline) immediately after the inoculum and following 48 and 96 hours (150 total mcg per animal).
Then, 48 hours following the last treatment (6 days after the challenge with Candida), the animals were sacrificed, and the abdominal wall as well as the peritoneum were dissected out.
The excised tissues were then homogenized in 5 ml of sterile saline with a Potter-Elvehjem tissue grinder. The resulting suspensions, appropriately diluted, where plated onto Petri dishes containing a selective agar medium (BIGGY agar), which allows to easily detect the yeast Colony Forming Units (CFU/ml).
The number of colonies scored in a series of dilutions for each single sample consents to calculate the number of yeast cells present in the infected tissue sample as follows: [formula] Where Zi is the number of dilutions performed, Ni is the number of plates prepared for each dilution, and Ci is the total number of yeast cells scored in each dilution.

Values joined by “and” are separate entries in the source; they are usually repeats but may differ in a detail not shown here. Identical values can stand only once.

Drawing on US5525627A, “Esters of acyl carnitines with long-chain aliphatic alcohols and pharmaceutical compositions containing same having antimycotic activity” (Sigma-Tau Industrie Farmaceutiche Riunite S.p.A., priority 1992, dated 1996), this text covers CFU/mouse for one compound.

With `Clc1ccc(COC(Cn2ccnc2)c2ccc(Cl)cc2Cl)c(Cl)c1` (stereo not shown) [Miconazole, reference compound], the CFU/mouse result is “sterile and 3.60 × 10^1 CFU/mouse and 8.10 × 10^1 CFU/mouse”.
